# From patent US5129951A, “Aromatic aldehydes and alcohols as potato tuber sprout inhibitors” (priority 1991, dated 1992)
# “Also recorded” adds a separate entry of the source. Where two headings read alike, the source gives them in different places.
# Assays:
# [1] = Theoretical saturated headspace concentration calculated from known vapor pressures; type: physicochemical; settings: calculated from known vapor pressures by Ideal Gas Law
# Protocol: Because these compounds were difficult to quantitate by gas chromatography at the concentration levels in saturated headspaces, theoretical saturated concentrations were calculated by converting known vapor pressures of each compound at 25° C. to molar concentrations using the Ideal Gas Law, […], where n/V is the molar concentration, P is the partial pressure (atm), R is the Ideal Gas constant (0.0821 l atm/mol ° K.), and T is the temperature (° K.).
# [2] = test system: potato tubers; test: Sprout inhibition of tubers exposed to compounds in headspace gas for 7 days (Example 1); type: in vivo, Solanum tuberosum L. cv `Norchip`; settings: 7 days in saturated headspace gas, 25° C.; for % Eyes Sprouted: dark, control 100, LSD (0.05) 12
# [3] = test system: fungi; test: Fungal growth on tubers exposed to compounds in headspace gas for 7 days (Example 1); type: in vivo; settings: 7 days in saturated headspace gas, 25° C.; for Fungal Growth: control ++; on Fungal growth: key: -: no fungi visible; +: = some fungi; ++: heavy fungal growth
# Description: (control flasks lacked any compounds).
# [4] = test system: potato tubers; test: Tuber sprouting after removal from exposure to volatilized aromatics for 1, 2, 4, 7 or 10 days (Example 2); type: in vivo, Solanum tuberosum L. cv `Norchip`; settings: 14 days after removal; for % Eyes Sprouted: 25° C., LSD (0.05) 24
# Protocol: (§1) Each treatment consisted of placing the tubers in sealed 9.2 l flasks containing excess levels of the treatment compounds at 25° C. as in Example 1. Three tubers were then removed from each treatment after 1, 2, 4, 7, and 10 days, and placed in flasks containing fresh humidified air (free of any additional volatilized compounds) at 25° C. Control tubers were placed in sealed flasks lacking any added compounds and three were removed after 1 and 10 days. Fourteen days after removal from the sealed flasks containing treatment compounds, all tubers were examined for percentage of eyes sprouted, tuber texture, and fungal growth. Each treatment was replicated once and each experiment was repeated once.
# [5] = test system: fungi; test: Fungal growth on tubers after removal from exposure to volatilized aromatics (Example 2); type: in vivo; settings: 14 days after removal
# Protocol: as §1
# [6] = test system: potato tubers; test: Tuber texture after removal from exposure to volatilized aromatics (Example 2); type: in vivo, Solanum tuberosum L. cv `Norchip`
# Protocol: as §1
# [7] = test system: potato tubers; test: Tuber sprouting 14 days after direct application of aromatic compounds (Example 3); type: in vivo, Solanum tuberosum L. cv `Norchip`; settings: for % Eyes Sprouted: 25° C., control 98, LSD (0.05) 14
# [8] = test system: fungi; test: Fungal growth 14 days after direct application of aromatic compounds (Example 3); type: in vivo
# [9] = test system: potato tubers; test: Tuber sprouting after removal from exposure to volatilized aromatics for 1, 2, 4, 7 or 10 days (Example 2); type: in vivo, Solanum tuberosum L. cv `Norchip`; settings: exposure for 10 days, 75 days after removal
# [10] = cited from earlier work; for Temperature at Which Vapor Pressure Equals 1 mm Hg: vapor pressure 1 mm Hg
# [11] = test system: potato tubers; test: Tuber texture/quality after exposure to compounds in headspace gas for 7 days (Example 1); settings: 7 days in saturated headspace gas, 25° C.
# [12] = test system: potato tubers; test: Tuber texture and quality 14 days after direct application of aromatic compounds (Example 3)
# [13] = test system: plants; settings: Putnam and Tang; cited from earlier work
# [14] = test system: potato tubers; settings: in vivo
# [15] = test system: potato tubers; settings: in vivo; remark: listed apart in the source
SMILES,Concentration of Saturated Headspace at 25° C. [1] [nM],effect on tuber sprouting [2],% Eyes Sprouted [2] [%],effect on fungal growth [3],Fungal Growth [3],"% Eyes Sprouted ([4]; 1 day exposure, control 96) [%]",% Eyes Sprouted ([4]; 2 days exposure) [%],% Eyes Sprouted ([4]; 4 days exposure) [%],% Eyes Sprouted ([4]; 7 days exposure) [%],"% Eyes Sprouted ([4]; 10 days exposure, control 100) [%]",inhibition of tuber sprouting ([4]; exposure for 7 or fewer days),inhibition of tuber sprouting ([4]; exposure for 10 days),Fungal Growth ([5]; 7 days exposure),"Fungal Growth ([5]; 10 days exposure, control +)",% Eyes Sprouted ([7]; 1% emulsion (dip)) [%],% Eyes Sprouted ([7]; 10% emulsion (dip)) [%],"Fungal Growth ([8]; 10% emulsion (dip), control +)",Temperature at Which Vapor Pressure Equals 1 mm Hg [10] [°C],Solubility in Water at 25° C. [10],tuber condition [11],further results
O=Cc1ccccc1 [Benzaldehyde],48000,completely inhibited sprouting,0,prevented any visible fungal growth,-,88,42,14,2,0,did not completely inhibit sprouting,completely inhibited sprouting,-,-,43,0,++,26.2,sl. soluble,firm and appeared healthy,"Fungal Growth ([5]; 1 day exposure, control +): -; Fungal Growth ([5]; 2 days exposure): -; Fungal Growth ([5]; 4 days exposure): -; tuber firmness ([6]; 1 day treatment, 14 days after removal): slightly soft; inhibition of sprouting ([7]; 10% emulsion): completely inhibited sprouting without damaging the potato tubers; % Eyes Sprouted ([7]; 100% (pure, sprayed)): 0%; Fungal Growth ([8]; 10% emulsion): heavily covered with fungal growth; Fungal Growth ([8]; 100% (pure, sprayed), control +): ++; sprouting [9]: remained unsprouted; tuber condition ([12]; 10% emulsion): remained hard, with no necrosis or surface pitting; Tuber Texture ([12]; 100% (pure, sprayed), control SS): S,N"
O=C(O)c1ccccc1 [Benzoic acid],100,no significant effect on tuber sprouting; also recorded: little or no inhibition of sprouting,98,present to some extent,+,,,,,,,,,,,,,96.0,,soft to the touch,reported allelopathy [13]: allelopathic
OCC=Cc1ccccc1 [Cinnamyl alcohol],2400,no significant effect on tuber sprouting,91,present to some extent,+,,,,,,,,,,,,,,soluble,,tuber condition [14]: slightly soft
CC=Cc1ccc(O)c(OC)c1 [Isoeugenol],1300,no significant effect on tuber sprouting,89,especially heavy growth,++,,,,,,,,,,,,,,,,tuber condition [14]: remained firm
Cc1ccc(C(C)C)c(O)c1 [Thymol],2900,completely inhibited sprouting,0,prevented any visible fungal growth,-,83,60,44,6,0,did not completely inhibit sprouting,completely inhibited sprouting,-,-,0,0,-,,,firm and appeared healthy,"tuber firmness ([6]; in vivo): slightly soft; inhibition of sprouting ([7]; 1% emulsion): suppressed sprouting; Fungal Growth ([8]; 1% emulsion (dip), control +): -; tuber condition [15]: large pitted areas on the tuber surface near each eye"
COc1cc(C=O)ccc1O [Vanillin],100,only slightly suppressed sprouting; also recorded: little or no inhibition of sprouting,87,present to some extent,+,,,,,,,,,,,,,107.0,sl. soluble,,reported allelopathy [13]: allelopathic
